SMILES strings stand for the structures.

This passage reports EC50 results from patent US7745636B2, “Hepatitis C virus inhibitors” (Bristol-Myers Squibb Company, priority 2006, dated 2010).

The test system of this test is HCV 1b-377-neo replicon cells. The experiment in a line: HCV Replicon assay, HCV 1b-377-neo replicon cells. Type of test: cell-based, HCV 1b genotype. The note with it: Hepatitis C virus, Table 2, read-out: Range (EC50 against HCV 1b). The protocol:
An HCV Replicon assay was utilized in the present disclosure, and was prepared, conducted and validated as described in commonly owned PCT/US2006/022197 and in O'Boyle et. al. Antimicrob Agents Chemother. 2005 April; 49(4):1346-53.
HCV 1b-377-neo replicon cells were used to test the currently described compound series as well as cells resistant to compound A due to a Y2065H mutation in NS5A (described in application PCT/US2006/022197). The compounds tested were determined to have more than 10-fold less inhibitory activity on cells resistant to compound A than wild-type cells indicating a related mechanism of action between the two compound series. Thus, the compounds of the present disclosure can be effective to inhibit the function of the HCV NS5A protein and are understood to be as effective in combinations as previously described in application PCT/US2006/022197 and commonly owned WO/O4014852. Further, the compounds of the present disclosure can be effective against the HCV 1b genotype. It should also be understood that the compounds of the present disclosure can inhibit multiple genotypes of HCV. […] In one embodiment compounds of the present disclosure are active against the 1a, 1b, 2a, 2b, 3a, 4a, and 5a genotypes.
For orientation: Replicon systems follow genome replication, usually without infectious particles.

For the compound `COC(=O)N[C@H](C(=O)N1CCC[C@H]1c1ncc(-c2ccc(-c3ccc(-c4cnc([C@@H]5CCCN5C(=O)[C@@H](Nc5ncccn5)C(C)C)[nH]4)cc3)cc2)[nH]1)C(C)C` [cj-11, methyl ((1S)-2-methyl-1-(((2S)-2-(5-(4′-(2-((2S)-1-(N-2-pyrimidinyl-L-valyl)-2-pyrrolidinyl)-1H-imidazol-5-yl)-4-biphenylyl)-1H-imidazol-2-yl)-1-pyrrolidinyl)carbonyl)propyl)carbamate], the EC50 (as a rule, the concentration needed to bring the measured effect to its halfway point) was in the range of 0.001 to 0.999 nM.

In the case of `COC(=O)N[C@@H](C(=O)N1CCC[C@H]1c1ncc(-c2ccc(-c3ccc(-c4cnc([C@@H]5CCCN5C(=O)[C@H](NC(=O)OC)c5ccccc5)[nH]4)nc3)cc2)[nH]1)c1ccccc1` [Example 147, methyl((1R)-2-((2S)-2-(5-(5-(4-(2-((2S)-1-((2R)-2-((methoxycarbonyl)amino)-2-phenylacetyl)-2-pyrrolidinyl)-1H-imidazol-5-yl)phenyl)-2-pyridinyl)-1H-imidazol-2-yl)-1-pyrrolidinyl)-2-oxo-1-phenylethyl)carbamate], the concentration giving a half-maximal response (EC50) was 0.001 to 0.999 nM.

On to `C[C@H](NC(=O)[C@@H](c1ccccc1)N(C)C)c1ncc(-c2ccc(-c3ccc(-c4cnc([C@@H]5CCCN5C(=O)[C@@H](c5ccccc5)N(C)C)[nH]4)cn3)cc2)[nH]1` [Example 152j-11, (2R)-2-(dimethylamino)-N-((1S)-1-(5-(4-(5-(2-((2S)-1-((2R)-2-(dimethylamino)-2-phenylacetyl)-2-pyrrolidinyl)-1H-imidazol-5-yl)-2-pyridinyl)phenyl)-1H-imidazol-2-yl)ethyl)-2-phenylacetamide], for which the EC50 lay in the range of 0.001 to 0.999 nM.

Turning to `COCC[C@H](NC(=O)OC)C(=O)N[C@H](c1nc(-c2ccc(-c3ccc(-c4c[nH]c([C@@H]5CCCN5C(=O)[C@H](CCOC)NC(=O)OC)n4)cc3)cc2)c[nH]1)C(C)C` [Example R20, methyl ((1S)-3-methoxy-1-(((2S)-2-(4-(4′-(2-((1S)-1-((N-(methoxycarbonyl)-O-methyl-L-homoseryl)amino)-2-methylpropyl)-1H-imidazol-4-yl)-4-biphenylyl)-1H-imidazol-2-yl)-1-pyrrolidinyl)carbonyl)propyl)carbamate], the EC50 was in the range of 0.001 to 0.999 nM.

`C[C@H](NC(=O)[C@@H](c1ccccc1)N(C)C)c1ncc(-c2ccc(-c3ccc(-c4cnc([C@@H]5CCCN5C(=O)[C@@H](c5ccccc5)N(C)C)[nH]4)nn3)cc2)[nH]1` [Example 152j-13, (2R)-2-(dimethylamino)-N-((1S)-1-(5-(4-(6-(2-((2S)-1-((2R)-2-(dimethylamino)-2-phenylacetyl)-2-pyrrolidinyl)-1H-imidazol-5-yl)-3-pyridazinyl)phenyl)-1H-imidazol-2-yl)ethyl)-2-phenylacetamide]: the EC50 lay in the range of 1 to 99 nM.

For `CN(C)[C@@H](C(=O)N1CCC[C@H]1c1ncc(-c2ccc(-c3cnc(-c4cnc([C@@H]5CCCN5C(=O)[C@@H](c5ccccc5)N(C)C)[nH]4)cn3)cc2)[nH]1)c1ccccc1` [Example 152j-7, (1R)-2-((2S)-2-(5-(5-(4-(2-((2S)-1-((2R)-2-(dimethylamino)-2-phenylacetyl)-2-pyrrolidinyl)-1H-imidazol-5-yl)phenyl)-2-pyrazinyl)-1H-imidazol-2-yl)-1-pyrrolidinyl)-N,N-dimethyl-2-oxo-1-phenylethanamine], the concentration giving a half-maximal response (EC50) was in the range of 1 to 99 nM.

Consider `COC(=O)N[C@H](C(=O)N1CCCC1c1ncc(-c2cc(C)c(-c3c(C)cc(-c4cnc([C@@H]5CCCN5C(=O)[C@@H](NC(=O)OC)C(C)C)[nH]4)cc3C)c(C)c2)[nH]1)C(C)C` (some centres unmarked) [Example F71], for which the EC50 fell in the range of 0.001 to 0.999 nM.

As to `COC(=O)N[C@@H](C)C(=O)N1CCC[C@H]1c1nc(-c2cnc(-c3ccc(-c4cnc([C@@H]5CCCN5C(=O)[C@H](C)NC(=O)OC)[nH]4)c(F)c3)nc2)c[nH]1` [Example D67, methyl ((1S)-2-((2S)-2-(5-(2-fluoro-4-(5-(2-((2S)-1-(N-(methoxycarbonyl)-L-alanyl)-2-pyrrolidinyl)-1H-imidazol-5-yl)-2-pyrimidinyl)phenyl)-1H-imidazol-2-yl)-1-pyrrolidinyl)-1-methyl-2-oxoethyl)carbamate], the 50% effective concentration (EC50) is 0.001 to 0.999 nM.
